Assay results as given in the supplement of paper PMC10307832.

What follows are cell lines tested with COCC[n+]1c2c(n(Cc3cnccn3)c1C)C(=O)c1ccccc1C2=O [YM155] + O=C(c1cc(Cc2n[nH]c(=O)c3ccccc23)ccc1F)N1CCN(C(=O)C2CC2)CC1 [Olaparib] (partner 8 µM) (assay: relative viability (nuclei count vs DMSO), 5 days (fraction); higher = more cells survive). Settings: first compound 0.002 µM.
Summary of the method: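 The day after seeding in 1536-well plates, lung cancer cell lines were treated by pin tool with a single drug, or with a fixed anchor-drug dose together with five library-drug doses (not always all listed) in √10 steps. After 5 days, a combined fix-and-stain solution (final 0.05% Triton X-100, 1% formaldehyde, 1 ug/ml Hoechst) was added. Nuclei counted on 4× images gave relative viability as treated counts over vehicle counts, reported as the median of duplicate plates.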
NCI-H1792 was tested, and the relative viability was 0.382.
With NCI-H647 the relative viability was 0.506.
Calu-6 gave a relative viability of 0.544.
NCI-H1703 was tested, and the relative viability was 0.499.
For LXF-289, the relative viability was 0.984.
Cell Line LU99A has a relative viability of 0.269.
With NCI-H2023 the relative viability was 0.558.
Cell Line NCI-H2228 has a relative viability of 0.67.
With NCI-H1437 the relative viability was 0.618.
NCI-H1395 showed a relative viability of 0.489.
For NCI-H2009, the relative viability was 0.66.
HCC-366 gave a relative viability of 0.368.
In the case of EBC-1, the relative viability was 0.819.
NCI-H1915 gave a relative viability of 0.26.
NCI-H2347 showed a relative viability of 0.536.
LCLC-103H showed a relative viability of 0.738.
NCI-H1734 gave a relative viability of 0.53.
For HCC-78, the relative viability was 0.882.
With COR-L 105 the relative viability was 0.584.
Cell Line HCC-15 has a relative viability of 0.668.
NCI-H1975 gave a relative viability of 0.717.
With NCI-H1944 the relative viability was 0.401.
For NCI-H2126, the relative viability was 0.884.
With EMC-BAC-2 the relative viability was 0.444.
In the case of SK-LU-1, the relative viability was 0.422.
IA-LM was tested, and the relative viability was 0.836.
NCI-H2170 showed a relative viability of 0.605.
In the case of NCI-H661, the relative viability was 0.727.
NCI-H358 was tested, and the relative viability was 0.574.
In the case of CAL-12T, the relative viability was 0.782.
LK-2 was tested, and the relative viability was 0.644.
HOP-62 showed a relative viability of 0.668.
Work on PC-14 yielded a relative viability of 0.292.
NCI-H1993 showed a relative viability of 0.765.
With NCI-H2405 the relative viability was 0.753.
A549 was tested, and the relative viability was 0.232.
Cell Line NCI-H3122 has a relative viability of 0.623.
A-427 showed a relative viability of 0.735.
NCI-H2342 was tested, and the relative viability was 0.356.
In the case of LOU-NH91, the relative viability was 0.894.
NCI-H596 gave a relative viability of 0.719.
For NCI-H1666, the relative viability was 0.754.
NCI-H838 was tested, and the relative viability was 0.711.
Cell Line NCI-H322M has a relative viability of 0.719.
In the case of NCI-H1793, the relative viability was 0.847.
With NCI-H441 the relative viability was 0.597.
In the case of NCI-H727, the relative viability was 0.775.
SW 1573 showed a relative viability of 0.5.
201T gave a relative viability of 0.813.
In the case of HCC-44, the relative viability was 0.969.
NCI-H1755 was tested, and the relative viability was 0.848.
For NCI-H1650, the relative viability was 0.781.
Cell Line ChaGo-K-1 has a relative viability of 0.364.
With COR-L23 the relative viability was 0.322.
For NCI-H2085, the relative viability was 0.737.
NCI-H460 was tested, and the relative viability was 0.411.
BEN showed a relative viability of 0.994.
PC-3 [JPC-3] gave a relative viability of 1.12.
With LC-2-ad the relative viability was 0.718.
For NCI-H522, the relative viability was 0.727.

Same assay, conditions: first compound 0.006325 µM
Cell Line EKVX has a relative viability of 0.875.
Cell Line EPLC-272H has a relative viability of 0.891.
With NCI-H520 the relative viability was 0.441.
NCI-H650 gave a relative viability of 0.345.
Cell Line RERF-LC-KJ has a relative viability of 0.801.
HCC-827 showed a relative viability of 0.649.
NCI-H2087 was tested, and the relative viability was 0.589.
SK-MES-1 showed a relative viability of 0.574.
In the case of NCI-H1299, the relative viability was 0.998.
Work on NCI-H1651 yielded a relative viability of 0.19.
Work on UMC-11 yielded a relative viability of 0.374.
Work on NCI-H1355 yielded a relative viability of 0.731.
Work on H3255 yielded a relative viability of 0.581.
Cell Line NCI-H1792 has a relative viability of 0.253.
With NCI-H647 the relative viability was 0.64.
Calu-6 gave a relative viability of 0.586.
Work on LCLC-97TM1 yielded a relative viability of 0.321.
For NCI-H1703, the relative viability was 0.403.
LXF-289 gave a relative viability of 1.04.
In the case of LU99A, the relative viability was 0.236.
Cell Line NCI-H2023 has a relative viability of 0.468.
With NCI-H2228 the relative viability was 0.597.
Work on NCI-H1437 yielded a relative viability of 0.596.
NCI-H1395 showed a relative viability of 0.457.
NCI-H2009 was tested, and the relative viability was 0.673.
HCC-366 showed a relative viability of 0.329.
For EBC-1, the relative viability was 0.743.
With NCI-H1915 the relative viability was 0.259.
NCI-H2347 gave a relative viability of 0.489.
LCLC-103H was tested, and the relative viability was 0.845.
ABC-1 gave a relative viability of 0.51.
Work on NCI-H1734 yielded a relative viability of 0.607.
HCC-78 showed a relative viability of 0.865.
With COR-L 105 the relative viability was 0.715.
Work on HCC-15 yielded a relative viability of 0.763.
HARA was tested, and the relative viability was 0.815.
Work on NCI-H1975 yielded a relative viability of 0.756.
Cell Line NCI-H1944 has a relative viability of 0.364.
For NCI-H2126, the relative viability was 0.921.
In the case of EMC-BAC-2, the relative viability was 0.44.
In the case of SK-LU-1, the relative viability was 0.442.
IA-LM gave a relative viability of 0.891.
NCI-H2170 showed a relative viability of 0.583.
With SW 900 the relative viability was 0.788.
For NCI-H661, the relative viability was 0.686.
NCI-H358 gave a relative viability of 0.625.
CAL-12T showed a relative viability of 0.735.
Work on LK-2 yielded a relative viability of 0.71.
Cell Line HOP-62 has a relative viability of 0.35.
Cell Line PC-14 has a relative viability of 0.205.
Work on NCI-H1993 yielded a relative viability of 1.01.
NCI-H2405 was tested, and the relative viability was 0.771.
For A549, the relative viability was 0.313.
NCI-H3122 was tested, and the relative viability was 0.74.
In the case of A-427, the relative viability was 0.556.
In the case of NCI-H2342, the relative viability was 0.386.
Cell Line LOU-NH91 has a relative viability of 0.874.
NCI-H596 showed a relative viability of 0.669.
For NCI-H1666, the relative viability was 0.741.
NCI-H23 gave a relative viability of 0.323.
In the case of NCI-H838, the relative viability was 0.787.
In the case of NCI-H322M, the relative viability was 0.815.
Cell Line NCI-H1793 has a relative viability of 0.824.
Work on NCI-H441 yielded a relative viability of 0.524.
In the case of NCI-H727, the relative viability was 0.722.
In the case of SW 1573, the relative viability was 0.409.
201T showed a relative viability of 0.845.
Cell Line HCC-44 has a relative viability of 1.03.
Cell Line NCI-H1755 has a relative viability of 0.853.
Work on NCI-H1650 yielded a relative viability of 0.699.
With ChaGo-K-1 the relative viability was 0.38.
Cell Line COR-L23 has a relative viability of 0.298.
NCI-H2085 was tested, and the relative viability was 0.755.
With NCI-H460 the relative viability was 0.444.
BEN was tested, and the relative viability was 1.06.
PC-3 [JPC-3] showed a relative viability of 1.19.
With LC-2-ad the relative viability was 0.685.
For NCI-H522, the relative viability was 0.646.

Same assay, conditions: first compound 0.02 µM
Work on EKVX yielded a relative viability of 0.854.
In the case of EPLC-272H, the relative viability was 0.722.
With NCI-H520 the relative viability was 0.379.
In the case of NCI-H650, the relative viability was 0.409.
RERF-LC-KJ showed a relative viability of 0.95.
For HCC-827, the relative viability was 0.654.
NCI-H2087 was tested, and the relative viability was 0.586.
SK-MES-1 showed a relative viability of 0.258.
Cell Line NCI-H1299 has a relative viability of 0.971.
